The values that follow are results of earlier work, collected in publication PMC10965793, “Synthesis and biological evaluation of pyridylpiperazine hybrid derivatives as urease inhibitors” (Frontiers in Chemistry, 2024).

SMILES strings stand for the structures. Like-named read-outs stand apart in the source and are kept apart here.

The IC50 is the point on the concentration scale where inhibition reaches its midpoint.

The data set deals with urease. The following applies: 2022, cited from earlier work.

On to `NC(=S)N/N=C/c1ccc(Cl)cn1` [Pyridine carbothioamide], for which the IC50 (in Figure 3, ref Naseer et al.) was 1070 nM.
In the case of `COc1ccccc1N1CCN(c2ccc(/C=N/NC(N)=O)cc2)CC1` [Piperazine based semicarbazone], the IC50 (in Figure 3, ref Moghadam et al.) was 3950 nM.
